Data reported in patent US12421225B2, “Heteroaromatic amide derivative and medicament containing the same” (KAKEN PHARMACEUTICAL CO., LTD., priority 2018, dated 2025).
Structures can show the parent of a compound that is named as a salt.

Key:
human Nav1.5 = human Nav1.5 (Homo sapiens (Human), UniProt Q14524); assay: Human Nav1.5 inhibitory activity evaluation (automated patch clamp QPatch16X, HEK293 cells stably expressing human Nav1.5); type: cell-based
Summary of the method: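 Whole-cell automated patch clamp at room temperature on HEK293 stably expressing human Nav1.5; holding −80 mV, 20 consecutive cardiomyocyte action-potential-like test pulses before and after compound (0.1% DMSO). Inhibition measured on inward current at 20th pulse; IC50 from concentration-response curve.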

human Nav1.7 = human Nav1.7 (Homo sapiens (Human), UniProt Q15858); assay: Human Nav1.7 inhibitory activity evaluation (automated patch clamp QPatch16X, HEK293A cells stably expressing human Nav1.7 and human Navβ1); type: cell-based
Summary of the method: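 QPatch16X whole-cell recordings at room temperature from HEK293A cells stably expressing human Nav1.7 with Navβ1, CsF-based internal solution, pH 7.4 external, 0.1% DMSO. From −100 mV holding, protocol included a 15 s hold at a potential inactivating ~30-40% of channels; IC50 from inward current at the second −10 mV pulse.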

male ICR mice [1] = assay: Effect on a neuropathic pain (L5 spinal nerve cut, von Frey 50% pain threshold); type: in vivo; details: allodynia-developed mice, dose of 10 mg/kg or less, single oral administration
Description: Test Example 4: Effect on a Neuropathic Pain
Five-week old male ICR mice were used for the test. The skin and muscles were incised to expose the sixth lumbar vertebra under isoflurane anesthesia, and the right transverse process was removed. The L5 spinal nerve was isolated from the surrounding tissue to cut out, and then the incision site was sutured.
The 50% pain threshold of the plantar surface was determined by referring to the method of Chaplan S R et al. (J Neurosci Methods 1994, 53: 55-63) using von Frey filaments (0.008 g, 0.02 g, 0.04 g, 0.07 g, 0.16 g, 0.4 g and 0.6 g). First, the mice were placed in a measurement case with a lattice scaffold and habituatedd until the animal settled; 0.07 g of filament was pressed against the plantar surface for about 3 seconds. If withdrawal behavior was observed, the filament with the stimulation intensity one level lower was used to apply stimulation, and conversely, if the withdrawal behavior was not detected, the filament with the stimulation intensity one level higher was used to apply stimulation. By repeating this operation, starting from 2 times before and after the presence or absence of escape behavior changed, the results for a total of 6 times were recorded, to calculate a 50% pain threshold using the following calculation formula. 50% pain threshold (g)=(10^[Xf+κδ]/10000)
Xf is the value of the stimulus intensity of the filament used in the last stimulation (log value), κ is the value derived from the pattern of presence/absence of withdrawal behavior for 6 times, and δ is the difference in stimulus intensity (log value) between the filaments used (here 0.365).

male ICR mice [2] = assay: Effect on acute pain (capsaicin-induced pain-related behavior, hind paw); type: in vivo
Description: Test Example 3: Effect on Acute Pain
Six-week old male ICR mice were used for the test. Test compounds were orally administered at 1-10 mg/kg and the mice were habituated to a clear observation cage for 60 minutes. The mice were lightly restrained under no anesthesia and 20 μL of 80 μg/mL (0.8% ethanol-saline) capsaicin solution was injected subcutaneously into the plantar surface of rihgt hind paw of mice. The mice were returned to the observation cage and, from just after that, the duration of pain-related behavior (licking, shaking) occurring in the right hind limb was measured as the reaction time for 5 minutes.
The inhibition rate of the test compound was determined by the following calculation formula. Test compound inhibition rate (%)=100×[1−(response time of test compound administered group/response time of vehicle control group)]

[3] = HEK293 cells stably expressing human Nav1.5, automated patch clamp QPatch16X
[4] = HEK293A cells stably expressing human Nav1.7 and human Navβ1, automated patch clamp QPatch16X

Sequence of human Nav1.5 (Q14524 whole entry): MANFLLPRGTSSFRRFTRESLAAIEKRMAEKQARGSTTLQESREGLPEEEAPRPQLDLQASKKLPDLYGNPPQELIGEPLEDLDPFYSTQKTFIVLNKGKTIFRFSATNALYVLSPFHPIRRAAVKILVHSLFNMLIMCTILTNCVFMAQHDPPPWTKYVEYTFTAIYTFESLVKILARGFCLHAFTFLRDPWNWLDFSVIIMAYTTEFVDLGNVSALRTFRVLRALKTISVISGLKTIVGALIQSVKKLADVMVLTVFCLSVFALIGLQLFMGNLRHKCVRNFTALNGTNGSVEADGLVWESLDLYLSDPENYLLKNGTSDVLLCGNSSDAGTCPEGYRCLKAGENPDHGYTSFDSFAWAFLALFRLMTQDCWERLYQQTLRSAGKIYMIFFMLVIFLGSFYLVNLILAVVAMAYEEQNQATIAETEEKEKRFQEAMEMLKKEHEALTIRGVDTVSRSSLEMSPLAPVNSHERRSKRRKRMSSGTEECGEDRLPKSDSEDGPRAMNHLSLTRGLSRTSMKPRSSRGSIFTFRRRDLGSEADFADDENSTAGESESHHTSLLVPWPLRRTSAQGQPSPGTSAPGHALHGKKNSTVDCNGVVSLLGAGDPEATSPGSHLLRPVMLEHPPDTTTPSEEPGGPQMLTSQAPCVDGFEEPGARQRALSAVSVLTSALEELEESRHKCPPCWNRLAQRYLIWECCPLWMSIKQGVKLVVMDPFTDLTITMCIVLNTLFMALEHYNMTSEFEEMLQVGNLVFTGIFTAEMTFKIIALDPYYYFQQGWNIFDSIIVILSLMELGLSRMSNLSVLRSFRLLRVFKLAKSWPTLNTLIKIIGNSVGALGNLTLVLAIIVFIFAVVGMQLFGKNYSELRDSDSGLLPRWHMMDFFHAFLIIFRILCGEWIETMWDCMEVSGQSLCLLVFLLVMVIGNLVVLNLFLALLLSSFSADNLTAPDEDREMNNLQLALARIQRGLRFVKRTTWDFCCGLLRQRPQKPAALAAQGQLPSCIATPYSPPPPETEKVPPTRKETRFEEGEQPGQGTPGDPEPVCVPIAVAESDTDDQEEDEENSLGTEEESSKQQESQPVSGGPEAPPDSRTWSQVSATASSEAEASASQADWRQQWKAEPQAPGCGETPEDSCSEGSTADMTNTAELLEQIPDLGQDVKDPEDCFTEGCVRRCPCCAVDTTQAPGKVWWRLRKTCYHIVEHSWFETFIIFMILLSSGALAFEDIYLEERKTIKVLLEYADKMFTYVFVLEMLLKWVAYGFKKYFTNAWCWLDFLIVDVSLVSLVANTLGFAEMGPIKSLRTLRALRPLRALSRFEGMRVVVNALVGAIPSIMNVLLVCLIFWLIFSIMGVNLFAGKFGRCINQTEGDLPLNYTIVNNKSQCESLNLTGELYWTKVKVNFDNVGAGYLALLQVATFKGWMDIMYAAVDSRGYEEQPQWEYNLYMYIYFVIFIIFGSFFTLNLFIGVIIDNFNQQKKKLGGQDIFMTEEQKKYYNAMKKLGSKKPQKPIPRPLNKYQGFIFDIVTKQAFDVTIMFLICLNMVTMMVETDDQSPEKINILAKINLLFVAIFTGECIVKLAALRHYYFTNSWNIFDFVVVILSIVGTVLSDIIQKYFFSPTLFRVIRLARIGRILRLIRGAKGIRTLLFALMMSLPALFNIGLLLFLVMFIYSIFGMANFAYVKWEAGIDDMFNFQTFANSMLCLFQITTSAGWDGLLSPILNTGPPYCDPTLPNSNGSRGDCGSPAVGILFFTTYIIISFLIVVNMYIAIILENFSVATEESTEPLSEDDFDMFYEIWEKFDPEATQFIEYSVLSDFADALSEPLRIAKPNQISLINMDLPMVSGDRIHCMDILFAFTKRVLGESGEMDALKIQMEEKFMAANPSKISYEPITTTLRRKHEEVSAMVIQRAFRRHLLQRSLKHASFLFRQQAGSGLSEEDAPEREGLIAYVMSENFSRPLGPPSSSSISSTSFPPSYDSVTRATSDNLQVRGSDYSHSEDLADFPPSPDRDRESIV
Sequence of human Nav1.7 (Q15858 whole entry): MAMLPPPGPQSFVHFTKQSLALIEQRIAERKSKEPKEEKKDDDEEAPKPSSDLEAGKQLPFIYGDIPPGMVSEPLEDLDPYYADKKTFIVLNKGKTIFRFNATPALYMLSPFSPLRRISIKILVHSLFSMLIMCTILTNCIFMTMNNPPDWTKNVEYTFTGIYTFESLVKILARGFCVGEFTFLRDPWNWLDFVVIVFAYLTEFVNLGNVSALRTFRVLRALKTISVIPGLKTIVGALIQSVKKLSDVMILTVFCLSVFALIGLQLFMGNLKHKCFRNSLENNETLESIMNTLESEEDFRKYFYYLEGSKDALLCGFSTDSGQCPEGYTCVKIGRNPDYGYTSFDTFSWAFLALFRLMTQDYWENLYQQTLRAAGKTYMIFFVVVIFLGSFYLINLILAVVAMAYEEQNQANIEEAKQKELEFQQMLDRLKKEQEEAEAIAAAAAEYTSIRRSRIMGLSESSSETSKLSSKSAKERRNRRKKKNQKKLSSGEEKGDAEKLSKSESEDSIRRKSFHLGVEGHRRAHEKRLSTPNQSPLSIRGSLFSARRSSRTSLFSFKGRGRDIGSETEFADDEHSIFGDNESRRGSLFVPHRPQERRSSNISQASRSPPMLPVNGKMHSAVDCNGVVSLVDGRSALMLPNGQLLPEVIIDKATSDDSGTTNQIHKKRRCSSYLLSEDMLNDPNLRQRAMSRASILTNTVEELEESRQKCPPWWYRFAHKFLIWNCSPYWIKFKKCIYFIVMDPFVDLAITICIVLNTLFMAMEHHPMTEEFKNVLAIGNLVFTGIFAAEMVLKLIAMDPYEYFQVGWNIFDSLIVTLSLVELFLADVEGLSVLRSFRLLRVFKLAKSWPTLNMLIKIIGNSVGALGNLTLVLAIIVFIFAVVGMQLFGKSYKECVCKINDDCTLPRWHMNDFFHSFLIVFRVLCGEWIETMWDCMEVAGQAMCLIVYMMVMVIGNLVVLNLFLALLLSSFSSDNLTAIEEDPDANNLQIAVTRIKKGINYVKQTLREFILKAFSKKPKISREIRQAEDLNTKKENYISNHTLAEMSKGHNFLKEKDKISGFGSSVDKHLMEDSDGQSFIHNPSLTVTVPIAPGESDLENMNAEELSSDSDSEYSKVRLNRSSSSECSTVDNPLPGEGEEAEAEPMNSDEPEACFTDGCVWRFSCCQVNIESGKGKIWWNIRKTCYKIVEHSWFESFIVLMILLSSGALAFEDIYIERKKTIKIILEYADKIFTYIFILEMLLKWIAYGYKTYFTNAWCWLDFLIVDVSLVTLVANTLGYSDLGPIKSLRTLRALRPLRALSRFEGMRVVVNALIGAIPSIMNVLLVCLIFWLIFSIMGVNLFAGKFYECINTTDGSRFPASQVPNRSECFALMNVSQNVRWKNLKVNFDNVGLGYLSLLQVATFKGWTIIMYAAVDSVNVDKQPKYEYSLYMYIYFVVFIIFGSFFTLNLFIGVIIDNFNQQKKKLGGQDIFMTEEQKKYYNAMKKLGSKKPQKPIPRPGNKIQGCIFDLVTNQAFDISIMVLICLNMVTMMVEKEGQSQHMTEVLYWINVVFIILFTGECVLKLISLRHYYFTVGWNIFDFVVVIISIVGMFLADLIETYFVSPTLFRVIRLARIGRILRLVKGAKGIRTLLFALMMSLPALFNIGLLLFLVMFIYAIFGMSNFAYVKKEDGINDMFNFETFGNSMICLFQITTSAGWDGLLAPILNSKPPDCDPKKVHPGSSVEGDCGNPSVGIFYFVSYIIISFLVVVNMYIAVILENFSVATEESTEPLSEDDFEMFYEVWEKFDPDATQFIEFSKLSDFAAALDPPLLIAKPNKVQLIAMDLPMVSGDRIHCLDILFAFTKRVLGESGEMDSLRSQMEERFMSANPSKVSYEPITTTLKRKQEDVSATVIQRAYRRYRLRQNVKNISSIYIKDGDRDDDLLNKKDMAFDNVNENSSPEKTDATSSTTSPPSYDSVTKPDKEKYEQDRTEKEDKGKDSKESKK
Sequence of human Nav1.7 (Q07699 19-218 partner): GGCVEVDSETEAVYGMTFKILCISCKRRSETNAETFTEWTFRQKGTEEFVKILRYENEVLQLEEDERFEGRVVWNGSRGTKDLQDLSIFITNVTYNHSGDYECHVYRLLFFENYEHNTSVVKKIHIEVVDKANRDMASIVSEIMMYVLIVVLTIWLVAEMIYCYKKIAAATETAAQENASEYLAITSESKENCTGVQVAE

Compound	IC50 (human Nav1.5; [3])	IC50 (human Nav1.7; [4])	50% pain threshold (antiallodynic effect) (male ICR mice [1])	Inhibition rate (%) (male ICR mice [2])	IC50 (human Nav1.5; human Nav1.5, automated patch clamp)	IC50 (human Nav1.7; human Nav1.7, automated patch clamp)
N#Cc1ccc2c(c1)C[C@@H](NC(=O)c1cc3n(n1)CCC(COCC1CC1)O3)CO2 (single isomer, unassigned) [103 (isomer A)]	≥ 3 µM	< 1 µM	increased the 50% pain threshold	A (Compounds with an inhibition rate of 30% or more are indicated by the letter “A”)	–	–
N#Cc1ccc2c(c1)C[C@@H](NC(=O)c1cc3n(n1)CCC(COC(F)(F)F)O3)CO2 (single isomer, unassigned) [134 (isomer A)]	1 to 3 µM	< 1 µM	increased the 50% pain threshold	A (Compounds with an inhibition rate of 30% or more are indicated by the letter “A”)	–	–
O=C(N[C@H]1COc2ccc(C(F)(F)F)cc2C1)c1cc2n(n1)CCC(C(F)F)O2 (single isomer, unassigned) [161 (isomer A)]	–	–	increased the 50% pain threshold	A (Compounds with an inhibition rate of 30% or more are indicated by the letter “A”)	≥ 3 µM	< 1 µM
N#Cc1ccc2c(c1)C[C@@H](NC(=O)c1cc3n(n1)CCC(c1ccccc1F)O3)CO2 (stereo partly drawn) [Example 70, N—((R)-6-cyanochroman-3-yl)-5-(2-fluorophenyl)-6,7-dihydro-5H-pyrazolo[5,1-b][1,3]oxazine-2-carboxamide]	1 to 3 µM	< 1 µM	increased the 50% pain threshold	A (Compounds with an inhibition rate of 30% or more are indicated by the letter “A”)	–	–
N#Cc1ccc2c(c1)C[C@@H](NC(=O)c1cc3n(n1)CCN(Cc1ccc(F)cc1)C3)CO2 [Example 290, (R)—N-(6-cyanochroman-3-yl)-5-(4-fluorobenzyl)-4,5,6,7-tetrahydropyrazolo[1,5-a]pyrazine-2-carboxamide hydrochloride]	–	–	increased the 50% pain threshold	A (Compounds with an inhibition rate of 30% or more are indicated by the letter “A”)	–	–
